System: apyrase
Experiment: In vitro apyrase assay (screen for apyrase inhibitors, phosphate release read at 630 nm)
Format: biochemical
Conditions: inhibitor conc at 1 mM; 1 hr at room temperature; rounded average of two assay results
Description: Method 1: In Vitro Apyrase Assay: Apyrase inhibitors useful as enhancers of pesticidal activity are assessed using an in vitro assay. The method of Windsor, Bio Techniques 33:1024-1030 (November 2002) was used as follows: Screen for Apyrase Inhibitors - 96 well plates were used for the assay: (Greiner bio-one: REF-655901-96 well, PS, F-bottom, Clear, Non-binding) Buffers: • Reaction Buffer: 60 mM Hepes; 3 mM MgCl2, 3 mM CaCl2 and 3 mM ATP (pH 6.5) • Development Buffer A: 2% aqueous ammonium molybdate • Development Buffer B: 11% ascorbic acid in 37.5% TCA in water • Stop buffer C: 2% trisodium citrate in 2% acetic acid solution in water • Add 100 μl of reaction buffer to each well. • Add […] (control) or inhibitor/compound or compounds such as […] or orthovanadate to each well. […] A blank cell indicates either <10% observed inhibition or a large difference between repetitions. In certain examples, the lack of observed inhibition is due to a lack of solubility of the compound under assay conditions, rather than a lack of apyrase inhibitory activity. Roux compound 15 inhibited apyrase in this assay at about 60%.

% Inhibition of Apyrase	SMILES
74%	C/C(=N\NC(=O)c1cccc(S(=O)(=O)Nc2ccccc2Cl)c1)c1ccc2ccccc2c1 [I-1, (E)-N-(2-chlorophenyl)-3-(2-(1-(naphthalen-2-yl)ethylidene)hydrazine-1-carbonyl)benzenesulfonamide]
60%	C/C(=N\NC(=O)c1ccc(NS(=O)(=O)c2cccs2)cc1)c1ccc2ccccc2c1 [I-2, (E)-N-(4-(2-(1-(naphthalen-2-yl)ethylidene)hydrazine-1-carbonyl)phenyl)thiophene-2-sulfonamide]
46%	C/C(=N\NC(=O)c1cccc(S(=O)(=O)N2CCOCC2)c1)c1ccc2ccccc2c1 [I-3, (E)-3-(morpholinosulfonyl)-N′-(1-(naphthalen-2-yl)ethylidene)benzohydrazide]
22%	CCCCCCCCC/C(C)=N\NC(=O)c1ccccc1 [I-5, (Z)-N′-(undecan-2-ylidene)benzohydrazide]
22%	C/C(=N\NC(=O)c1cncc(Br)c1)c1ccc2ccccc2c1 [I-6, (E)-5-bromo-N′-(1-(naphthalen-2-yl)ethylidene)nicotinohydrazide]
20%	C/C(=N/NC(=O)c1cccc(C)c1)c1ccc2ccccc2c1 [I-7, (Z)-3-methyl-N′-(1-(naphthalen-2-yl)ethylidene)benzohydrazide]
19%	C/C(=N\NC(=O)c1ccc(-n2cnnn2)cc1)c1ccc2ccccc2c1 [I-8, (E)-N′-(1-(naphthalen-2-yl)ethylidene)-4-(1H-tetrazol-1-yl)benzohydrazide]
17%	C/C(=N\NC(=O)c1ccc2c(c1)OCO2)c1cccnc1 [I-10, (E)-N′-(1-(pyridin-3-yl)ethylidene)benzo[d][1,3]dioxole-5-carbohydrazide]
17%	C/C(=N\NC(=O)c1cccc2ccccc12)c1ccc(C)c(C)c1 [I-11, (E)-N′-(1-(3,4-dimethylphenyl)ethylidene)-1-naphthohydrazide]
16%	C/C(=N\NC(=O)c1ccccc1F)c1ccncc1 [I-12, (E)-2-fluoro-N′-(1-(pyridin-4-yl)ethylidene)benzohydrazide]
16%	COc1ccc2cc(/C(C)=N/NC(=O)c3ccc4c(c3)OCO4)ccc2c1 [I-13, (E)-N′-(1-(6-methoxynaphthalen-2-yl)ethylidene)benzo[d][1,3]dioxole-5-carbohydrazide]
16%	C/C(=N\NC(=O)c1n[nH]c2c1CCCC2)c1ccc2ccccc2c1 [I-14, (E)-N′-(1-(naphthalen-2-yl)ethylidene)-4,5,6,7-tetrahydro-1H-indazole-3-carbohydrazide]
15%	C/C(=N\NC(=O)c1cc(C)n[nH]1)c1ccc2ccccc2c1 [I-15, (E)-3-methyl-N′-(1-(naphthalen-2-yl)ethylidene)-1H-pyrazole-5-carbohydrazide]
14%	CCCCCC(=O)N/N=C(\C)c1cccc2ccccc12 [I-16, (E)-N′-(1-(naphthalen-1-yl)ethylidene)hexanehydrazide]
14%	C/C(=N/NC(=O)c1ccccc1)C(=O)O [I-17, (Z)-2-(2-benzoylhydrazineylidene)propanoic acid]
13%	C/C(=N\NC(=O)c1ccccc1C)c1ccccn1 [I-18, (E)-2-methyl-N′-(1-(pyridin-2-yl)ethylidene)benzohydrazide]
13%	CCC/C=N/NC(=O)c1ccccc1 [I-19, (E)-N′-butylidenebenzohydrazide]
12%	COc1ccc2cc(/C(C)=N/NC(=O)c3ccc(OC)c(OC)c3)ccc2c1 [I-20, (E)-3,4-dimethoxy-N′-(1-(6-methoxynaphthalen-2-yl)ethylidene)benzohydrazide]
12%	C/C(=N/NC(=O)c1ccc2nc[nH]c2c1)c1ccc2ccccc2c1 [I-21, (Z)-N′-(1-(naphthalen-2-yl)ethylidene)-1H-benzo[d]imidazole-6-carbohydrazide]
12%	C/C(=N\NC(=O)c1ccccc1)c1ccc(-c2ccccc2)cc1 [I-22, (E)-N′-(1-([1,1′-biphenyl]-4-yl)ethylidene)benzohydrazide]
12%	C/C(=N\NC(N)=O)c1cccc2ccccc12 [I-23, (E)-2-(1-(naphthalen-1-yl)ethylidene)hydrazine-1-carboxamide]
11%	CCCCCC(=O)N/N=C(/C)c1ccc2ccccc2c1 [I-24, (Z)-N′-(1-(naphthalen-2-yl)ethylidene)hexanehydrazide]
11%	CCc1ccc(/C=N/NC(=O)c2ccccc2)cc1 [I-25, (E)-N′-(4-ethylbenzylidene)benzohydrazide]

% Inhibition of Apyrase	SMILES
11%	CC(C)(C)/C=N/NC(=O)c1ccccc1 [I-26, (E)-N′-(2,2-dimethylpropylidene)benzohydrazide]
10%	C/C(=N\NC(=O)c1ccc(Cl)cc1Cl)c1ccccn1 [I-27, (E)-2,4-dichloro-N′-(1-(pyridin-2-yl)ethylidene)benzohydrazide]
10%	C/C(=N\NC(=O)c1cccc([N+](=O)[O-])c1)c1ccc2ccccc2c1 [I-29, (E)-N′-(1-(naphthalen-2-yl)ethylidene)-3-nitrobenzohydrazide]
10%	CCCC(CCC)=NNC(=O)c1ccccc1F [I-30, 2-fluoro-N′-(heptan-4-ylidene)benzohydrazide]
10%	C/C(=N\NC(=O)c1cccc(Cl)c1)c1ccc2ccccc2c1 [I-31, (E)-3-chloro-N′-(1-(naphthalen-2-yl)ethylidene)benzohydrazide]
10%	C/C(=N/NC(=O)c1cccc(C)c1)C1CC1 [I-32, (Z)-N′-(1-cyclopropylethylidene)-3-methylbenzohydrazide]
10%	Cc1ccc(/C=N/NC(=O)c2ccccc2)cc1 [I-33, (E)-N′-(4-methylbenzylidene)benzohydrazide]
74%	CC(=NNC(=O)c1cccc(C)c1)c1ccc2c(c1)CCCC2 [I-204, (E)-3-methyl-N′-(1-(5,6,7,8-tetrahydronapthalen-2-yl)ethylidene)benzohydrazide]
68%	C/C(=N\NC(=O)c1cnnc(C)c1)c1ccc2ccccc2c1 [I-205, (E)-6-methyl-N′-(1-(naphthalen-2-yl)ethylidene)pyridazine-4-carbohydrazide]
68%	C/C(=N\NC(=O)c1ccc(C)c(C)c1)c1ccc2ccccc2c1 [I-206, (E)-3,4-dimethyl-N′-(1-(naphthalen-2-yl)ethylidene)benzohydrazide]
68%	C/C(=N\NC(=O)c1cc(C)cs1)c1ccc2ccccc2c1 [I-207, (E)-4-methyl-N′-(1-(naphthalen-2-yl)ethylidene)thiophene-2-carbohydrazide]
66%	C/C(=N\NC(=O)c1ccc(NS(C)(=O)=O)cc1)c1ccc2ccccc2c1 [I-208, (E)-N-(4-(2-(1-(naphthalen-2-yl)ethylidene)hydrazine-1-carbonyl)phenyl)methanesulfonamide]
65%	C/C(=N\NC(=O)c1cccc(N(C)C)c1)c1ccc2ccccc2c1 [I-209, (E)-3-(dimethylamino)-N′-(1-(naphthalen-2-yl)ethylidene)benzohydrazide]
63%	C/C(=N\NC(=O)c1cccc(C(F)(F)F)c1)c1ccc2ccccc2c1 [I-210, (E)-N′-(1-(naphthalen-2-yl)ethylidene)-3-(trifluoromethyl)benzohydrazide]
56%	C/C(=N\NC(=O)c1cccc(C)n1)c1ccc2ccccc2c1 [I-211, (E)-6-methyl-N′-(1-(naphthalen-2-yl)ethylidene)picolinohydrazide]
56%	C/C(=N\NC(=O)c1ccc(C)s1)c1ccc2ccccc2c1 [I-212, (E)-5-methyl-N′-(1-(naphthalen-2-yl)ethylidene)thiophene-2-carbohydrazide]
55%	C/C(=N\NC(=O)c1ccccc1)c1ccc2ccccc2c1 [I-213, (E)-N′-(1-(naphthalen-2-yl)ethylidene)benzohydrazide]
44%	C/C(=N\NC(=O)c1csc(C)c1)c1ccc2ccccc2c1 [I-216, (E)-5-methyl-N′-(1-(naphthalen-2-yl)ethylidene)thiophene-3-carbohydrazidee]
44%	C/C(=N\NC(=O)c1cccc(C)c1)c1ccc(C)c(C)c1 [I-217, (E)-N′-(1-(3,4-dimethylphenyl)ethylidene)-3-methylbenzohydrazide]
42%	CCc1cccc(C(=O)N/N=C(\C)c2ccc3ccccc3c2)c1 [I-218, (E)-3-ethyl-N′-(1-(naphthalen-2-yl)ethylidene)benzohydrazide]
40%	C/C(=N\NC(=O)c1ccnc(C)n1)c1ccc2ccccc2c1 [I-219, (E)-2-methyl-N′-(1-(naphthalen-2-yl)ethylidene)pyrimidine-4-carbohydrazide]
25%	C/C(=N\NC(=O)c1cccc(CO)c1)c1ccc2ccccc2c1 [I-220, (E)-3-(hydroxymethyl)-N′-(1-(naphthalen-2-yl)ethylidene)benzohydrazide]
23%	C/C(=N\NC(=O)c1cccc(S(=O)(=O)N(C)C)c1)c1ccc2ccccc2c1 [I-221, (E)-N,N-dimethyl-3-(2-(1-(naphthalen-2-yl)ethylidene)hydrazine-1-carbonyl)benzenesulfonamide]
